Results taken from PubChem BioAssay AID256 (DTP/NCI, 2004).
Values joined by “and” are separate entries in the source; they are usually repeats but may differ in a detail not shown here. Equal values may be shown once. Inconclusive results and toxic doses are left out. Rule for the calls: active = survival T/C of 150% or more; inactive = T/C below 125% in these data.

Test system: CD2F1 mice, L1210 leukemia ip, survival T/C
Assay: NCI In Vivo Anticancer Drug Screen. Data for tumor model L1210 Leukemia (intraperitoneal) in CD2F1 (CDF1) mice
Details: higher = longer survival
Method in brief: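 Tumor-bearing mice (transplanted tumor) were split into treated and vehicle control groups, and the measured endpoint of each treated group was divided by that of its vehicle controls.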

[1] = endpoint: mean survival time, dose: 100.0 mg/kg/injection, schedule: Q01DX009 (ip), vehicle: saline with Tween-80
[2] = endpoint: mean survival time, dose: 100.0 mg/kg/injection, schedule: Q04DX003 (ip), vehicle: saline with Tween-80
[3] = endpoint: mean survival time, dose: 200.0 mg/kg/injection, schedule: Q01DX009 (ip), vehicle: saline with Tween-80
[4] = endpoint: mean survival time, dose: 400.0 mg/kg/injection, schedule: Q01DX009 (ip), vehicle: saline with Tween-80
[5] = endpoint: mean survival time, dose: 75.0 mg/kg/injection, schedule: Q01DX001 (ip), vehicle: saline
[6] = endpoint: mean survival time, dose: 150.0 mg/kg/injection, schedule: Q01DX001 (ip), vehicle: saline

Measured: T/C

Cc1ccc(C2(O)c3ccccc3C(=O)N2c2ccccc2C)cc1 (centres undefined)
inactive: [1] 100 % of control | [2] 104 % of control | [3] 93 % of control | endpoint: mean survival time, dose: 200.0 mg/kg/injection, schedule: Q04DX003 (ip), vehicle: saline with Tween-80 104 % of control | [4] 102 % of control | endpoint: mean survival time, dose: 400.0 mg/kg/injection, schedule: Q04DX003 (ip), vehicle: saline with Tween-80 106 % of control

CC(=O)NC(C(=O)O)C(C)C.CC(=O)NC(C(=O)O)C(C)C.[NH-]C1CCCCC1[NH-].[Pt+2] (centres undefined)
inactive: endpoint: median survival time, dose: 3.12 mg/kg/injection, schedule: Q04DX003 (ip), vehicle: saline 102 % of control and 107 % of control and 108 % of control | endpoint: median survival time, dose: 6.25 mg/kg/injection, schedule: Q04DX003 (ip), vehicle: saline 107 % of control [middle of 4 runs] | endpoint: median survival time, dose: 12.5 mg/kg/injection, schedule: Q04DX003 (ip), vehicle: saline 112 % of control [middle of 4 runs] | endpoint: median survival time, dose: 25.0 mg/kg/injection, schedule: Q04DX003 (ip), vehicle: saline 112 % of control [middle of 4 runs] | endpoint: median survival time, dose: 50.0 mg/kg/injection, schedule: Q04DX003 (ip), vehicle: saline 122 % of control and 119 % of control
active: endpoint: median survival time, dose: 200.0 mg/kg/injection, schedule: Q04DX003 (ip), vehicle: saline 187 % of control [middle of 4 runs]

CCCCC(=O)C(=O)OC(OC(=O)C(=O)CCCC)c1ccccc1
inactive: [5] 93 % of control | [6] 97 % of control

CCN(CC)C(C(=O)Nc1ccccc1)C(=O)Nc1ccccc1
inactive: [1] 98 % of control | [3] 93 % of control | [4] 98 % of control

CC1(C)N=C(N)N=C(N)N1c1cccc(C#N)c1
inactive: endpoint: mean survival time, dose: 17.0 mg/kg/injection, schedule: Q01DX009 (ip), vehicle: saline 112 % of control | endpoint: mean survival time, dose: 25.0 mg/kg/injection, schedule: Q01DX009 (ip), vehicle: saline 117 % of control | endpoint: mean survival time, dose: 37.5 mg/kg/injection, schedule: Q01DX009 (ip), vehicle: saline 120 % of control | [5] 104 % of control | [6] 113 % of control

CCOc1ccc(/C=C/c2ccc3ccccc3[n+]2C)cc1OCC
inactive: endpoint: mean survival time, dose: 25.0 mg/kg/injection, schedule: Q01DX001 (ip), vehicle: saline with Tween-80 102 % of control

C#CCn1c2ccccc2c2ccccc21
inactive: endpoint: mean survival time, dose: 100.0 mg/kg/injection, schedule: Q04DX003 (ip), vehicle: saline 106 % of control | endpoint: mean survival time, dose: 200.0 mg/kg/injection, schedule: Q04DX003 (ip), vehicle: saline 98 % of control | endpoint: mean survival time, dose: 400.0 mg/kg/injection, schedule: Q04DX003 (ip), vehicle: saline 104 % of control

Nc1n[nH]c2cc(=O)[nH]c(O)c12
inactive: endpoint: mean survival time, dose: 75.0 mg/kg/injection, schedule: Q01DX009 (ip), vehicle: saline 97 % of control | endpoint: mean survival time, dose: 75.0 mg/kg/injection, schedule: Q04DX003 (ip), vehicle: saline 106 % of control | endpoint: mean survival time, dose: 150.0 mg/kg/injection, schedule: Q01DX009 (ip), vehicle: saline 103 % of control | endpoint: mean survival time, dose: 150.0 mg/kg/injection, schedule: Q04DX003 (ip), vehicle: saline 102 % of control | endpoint: mean survival time, dose: 300.0 mg/kg/injection, schedule: Q01DX009 (ip), vehicle: saline 111 % of control | endpoint: mean survival time, dose: 300.0 mg/kg/injection, schedule: Q04DX003 (ip), vehicle: saline 106 % of control

O=S1Cc2ccccc2C1
inactive: [2] 98 % of control

CCC1(C)CCC2C(=CCC3C(C)(C(=O)OC)CCCC23C)C1 (centres undefined)
inactive: endpoint: mean survival time, dose: 100.0 mg/kg/injection, schedule: Q01DX001 (ip), vehicle: saline with Tween-80 94 % of control | endpoint: mean survival time, dose: 200.0 mg/kg/injection, schedule: Q01DX001 (ip), vehicle: saline with Tween-80 92 % of control | endpoint: mean survival time, dose: 400.0 mg/kg/injection, schedule: Q01DX001 (ip), vehicle: saline with Tween-80 94 % of control

NC(=S)c1cccc(OCCOc2cccc3ccccc23)c1
inactive: endpoint: mean survival time, dose: 25.0 mg/kg/injection, schedule: Q01DX009 (ip), vehicle: saline with Tween-80 92 % of control | endpoint: mean survival time, dose: 50.0 mg/kg/injection, schedule: Q01DX009 (ip), vehicle: saline with Tween-80 95 % of control | [1] 88 % of control

O=P(OCCCO)(N1CC1)N1CC1
inactive: endpoint: mean survival time, dose: 25.0 mg/kg/injection, schedule: Q01DX001 (ip), vehicle: other 101 % of control | endpoint: mean survival time, dose: 50.0 mg/kg/injection, schedule: Q01DX001 (ip), vehicle: other 101 % of control | endpoint: mean survival time, dose: 100.0 mg/kg/injection, schedule: Q01DX001 (ip), vehicle: other 102 % of control | endpoint: mean survival time, dose: 200.0 mg/kg/injection, schedule: Q01DX001 (ip), vehicle: other 98 % of control | endpoint: mean survival time, dose: 400.0 mg/kg/injection, schedule: Q01DX001 (ip), vehicle: other 96 % of control
